Consider three compounds from patent publication US20240408093A1, “HETEROBIFUNCTIONAL COMPOUNDS AND THEIR USE IN TREATING DISEASE” (HALDA THERAPEUTICS OPCO, INC., priority 2022, published 2024).

The target in one experiment is T1, EGFR T790M L858R (Homo sapiens, UniProt P00533, L858R/T790M).
T1 construct: EGFR T790M L858R (amino acids 696-1022)
Briefly: Release of effector protein ligand from heterobifunctional compounds, EGFR T790M L858R. The format is biochemical. The settings on record: detected A1-3. On the procedure:
Exemplary heterobifunctional compounds were evaluated for the ability to release an effector protein ligand in the presence of KRAS G12C, BTK, or EGFR T790M L858R target proteins.
Samples for mass spectrometry for KRAS G12C, BTK, and EGFR T790M L858R were prepared as described above for the intact mass spectrometry target engagement experiment, respectively, except rather than flash-freezing, 20 μL of sample was quenched with 50 μL of 100% acetonitrile. As well, a buffer-only control was used to detect latent release of effector protein ligand analyte. Internal standard (IS) solution consisted of 200 ng/mL propranolol and 50 ng/mL diclofenac in methanol:water 1:1 (v/v). A 4-point calibration curve (calibration standard (CS)) consisting of each analyte was made at final concentrations of 3 nM, 30 nM, 300 nM, and 3000 nM. Unknown samples were diluted such that the unknown analyte concentration was in the linear range of the calibration curve.
Samples for all proteins were prepared and analyzed from the following:
Samples were further analyzed with AB Sciex Triple Quad 5500 system coupled with Shimadzu Prominence HPLC.

Another experiment deals with T2, GSPT1 (Homo sapiens, UniProt P15170+Q96SW2).
T2 construct: host or cells: HEK293 LgBiT / GSPT1 HiBiT CRISPR knock-in
Briefly: GSPT1 HiBiT degradation assay. It is filed as cell-based. The following applies: HEK293 LgBiT GSPT1 HiBiT cells, 6 hours. From the text: Promega developed a HEK293 cell line that constitutively expresses LgBiT protein and GSPT1_HiBiT fusion protein. When both proteins are present, the HiBiT portion of the fusion protein combines with LgBiT protein to form a functional luciferase enzyme. Endurazine, a cell permeable small molecule, is converted by cellular esterases into furimazine, which the luciferase enzyme uses as a substrate to generate luminescence. When GSPT1 is degraded, the HiBit is also degraded. This prevents formation of fully functional luciferase, leading to a loss in luminescence. GSPT1 degradation therefore correlates with a decrease in luminescence and can be measured continuously over time. The concentration of compound at which 50% GSPT1 degradation occurs (DC50) may be calculated using this system.
HEK293 LgBiTGSPT1 HiBiT CRISPR Knock-in cells were cultured in DMEM Media supplemented with 10% Heat-inactivated FBS, 1% Penicillin/Streptomycin, 200 μg/mL hygromycin and stored in a humidified incubator set at 37° C. and 5% CO2. 18-24 hours prior to compound treatment, cells were seeded at 1000 cells/well in a 384-well tissue culture-treated white plates in 25 μL media lacking selection for 18-24 hours. The plates were spun at 300 g for 30 seconds and stored in the incubator overnight. After 24 hours, compounds are titrated in DMSO and added to media supplemented with endurazine substrate. A 25 μL aliquot of 2× compound/endurazine in media is then added to the 384-well microplate with seeded cells. (Endurazine is used at a final concentration of 0.5×). The plate was spun at 300 g for 30 seconds and stored in the incubator. After 6 hours, the plate was read on a Perkin Elmer MultiMode Plate Reader Envision 2105 to measure luminescence signal. Data were plotted in Prism (Graphpad) and the concentration of compound at which 50% GSPT1 degradation occurs (DC50) was calculated.

The next experiment has as its system HeLa cells (ATCC CCL-2). Briefly: Cellular growth inhibition assay, HeLa cells (Example 16). The format is cell-based. The settings on record: Homo sapiens, 72 hours, CellTiter-Glo 2.0.
Experiment [1] addresses T3, EGFR T790M, L858R (amino acids 669-1011) (Homo sapiens, UniProt P00533, L858R/T790M).
T3 construct: purchased Eurofins Discovery (KdELECT); host or cells: mammalian cells (HEK-293)
Briefly: KdELECT binding assay, EGFR T790M, L858R. How it is done:
(§1) Exemplary compounds were tested for ability to bind to EGFR WT (amino acids 669-1011, Accession Number NP_005219.2) or EGFR T790M, L858R (amino acids 669-1011 Accession Number NP_005219.2) expressed from bacteria or mammalian cells, respectively. Compounds were tested using the KdELECT assay at Eurofins Discovery.
(§2) Kinase-tagged T7 phage strains were prepared in an E. coli host derived from the BL21 strain. E. coli were grown to log-phase and infected with T7 phage and incubated with shaking at 32° C. until lysis. The lysates were centrifuged and filtered to remove cell debris. The remaining kinases were produced in HEK-293 cells and subsequently tagged with DNA for qPCR detection. Streptavidin-coated magnetic beads were treated with biotinylated small molecule ligands for 30 minutes at room temperature to generate affinity resins for kinase assays. The liganded beads were blocked with excess biotin and washed with blocking buffer (SeaBlock (Pierce), 1% BSA, 0.05% Tween 20, 1 mM DTT) to remove unbound ligand and to reduce non-specific binding. Binding reactions were assembled by combining kinases, liganded affinity beads, and test compounds in 1x binding buffer (20% SeaBlock, 0.17× PBS, 0.05% Tween 20, 6 mM DTT). Test compounds were prepared as 111× stocks in 100% DMSO. Kd values were determined using an 11-point 3-fold compound dilution series with three DMSO control points. All compounds for Kd measurements are distributed by acoustic transfer (non-contact dispensing) in 100% DMSO. The compounds were then diluted directly into the assays such that the final concentration of DMSO was 0.9%. All reactions performed in polypropylene 384-well plate. Each was a final volume of 0.02 mL. The assay plates were incubated at room temperature with shaking for 1 hour and the affinity beads were washed with wash buffer (1× PBS, 0.05% Tween 20). The beads were then re-suspended in elution buffer (1× PBS, 0.05% Tween 20, 0.5 μM nonbiotinylated affinity ligand) and incubated at room temperature with shaking for 30 minutes. The kinase concentration in the eluates was measured by qPCR.

Experiment [2] concerns the target T4, EGFR T790M/L858R kinase domain (Homo sapiens, UniProt P00533, L858R/T790M).
T4 construct: EGFR (amino acids 696-1022, T790M, L858R); expressed in transfected cells; host or cells: HEK293, lentiviral transduction, puromycin selection
Briefly: EGFR cellular target engagement assay (HEK293 cells stable for EGFR T790M, L858R). The settings on record: 6 hours, read-out: TE50 (the source's name). The format is cell-based. On the procedure:
HEK293 cells were cultured in DMEM (Gibco 11995), supplemented with 10% Heat-inactivated FBS (Gibco A38400-01) and 1% Penicillin/Streptomycin (Gibco 15140-122) at 37° C. with 5% CO2 in a humidified tissue culture incubator. Cells were made stable for EGFR (amino acids 696-1022, T790M, L858R) by lentiviral transduction, followed by selection with 1 μg/ml Puromycin Dihydrochloride (Thermo A1113803). Cells were seeded at 30,000 cells/ml in 0.1 ml of complete media in Poly-D-lysine-treated 96-well plates and incubated overnight. Cells were treated with increasing concentrations of compound and let incubate at 37C and 5% CO2 for 6 hours, after which media was aspirated, washed with 1×PBS and cells were lysed in RIPA Lysis and Extraction Buffer (Thermo 89901) supplemented with 5 mM MgCl2, Protease and Phosphatase inhibitor cocktail (Thermo 1861281), and Universal Nuclease (Thermo 88700). Plates with RIPA were shaken at 4° C. at 600 rpm for 15 min. After shaking samples, they were collected and spun down at 21,000 g for 15 min at 4° C. Following centrifugation, […] of lysate was added to Laemmli Sample Buffer (Bio-Rad 1610747) plus 10% beta-mercaptoethanol, boiled for 15 minutes at 65° C. and loaded onto 4-20% Mini-PROTEAN TGX™ Precast Protein Gels (Bio-Rad). Protein was transferred to a nitrocellulose membrane (Thermo LC2000) using the iBlot 2 Dry Blotting System (Thermo). After transfer, membranes were washed in 1× TBST (Bioland Scientific LLC TBST0103) 3× for 5 min. Following the wash, blocking buffer (Rockland MB-070) was added for 1 hour at room temperature. Primary antibodies against EGFR (Cell Signaling Technology 3197) and actin (Cell Signaling Technology 3700S) were added overnight at 4° C. Membranes were then washed again 3× for 5 min in 1× TBST. Secondary antibodies (LI-COR 926-68072 and 926-68073) were added and shaken for 1 hr at room temperature. Membranes were then washed 3× for 5 min in 1×TBST and developed. Membranes were placed on an Odyssey imager (LI-COR).

Experiment [3] concerns HEK293 cells (ATCC CRL-1573). Briefly: Cellular growth inhibition assay, HEK293 cells (Example 16). The format is cell-based. The following applies: Homo sapiens, 72 hours, CellTiter-Glo 2.0.
For experiment [4], the target named is T5, EGFR WT (amino acids 669-1011) (Homo sapiens, UniProt P00533).
T5 construct: purchased Eurofins Discovery (KdELECT); host or cells: bacteria (E. coli BL21-derived, T7 phage)
Briefly: KdELECT binding assay, EGFR WT. On the procedure: as §1, §2

The target in a further experiment is T6, CCNK (Homo sapiens, UniProt O75909+Q16531+Q9NYV4).
T6 construct: expressed in transfected cells; host or cells: HEK293 LgBiT cells (Promega), lentiviral transduction, puromycin selection
Briefly: CCNK HiBiT degradation assay. It is filed as cell-based. The settings on record: HEK293 LgBiT/CCNK HiBiT cells, 6 hours. How it is done: HEK293 LgBiT cells (Promega) were cultured in DMEM (Gibco 11995), supplemented with 10% Heat-inactivated FBS (Gibco A38400-01) and 1% Penicillin/Streptomycin (Gibco 15140-122) and 200 μg/ml Hygromycin B (Gibco 10-687-010) at 37° C. with 5% CO2 in a humidified tissue culture incubator. Cells were made stable for CCNK fused to a C-terminal HiBiT peptide by lentiviral transduction, followed by selection with 1 μg/ml Puromycin Dihydrochloride (Thermo A1113803). HEK293 LgBiT/CCNK HiBiT cells were seeded at 3000 cells/well in 384-well, tissue culture-treated white plates (Perkin Elmer 6007680) in 25 μL media lacking selection for 18-24 hours. Plates were spun at 300 g for 30 seconds and stored in the incubator overnight. After 24 hours, compounds were titrated in DMSO and added to media supplemented with Endurazine Substrate (Promega N2570). A 25 ul aliquot of 2× compound/endurazine in media were then added to the 384-well microplate with seeded cells. (Endurazine was used at a final concentration of 0.5×). The plate was spun at 300 g for 30 seconds and stored in the incubator. After 6 hours the plate was read on Envision MultiMode Plate Reader 2105 (Perkin Elmer) to measure luminescence signal. Data were plotted in Prism (Graphpad) and the concentration of compound at which 50% CCNK degradation occurs (DC50) was calculated.

T6 sequence (O75909 whole entry, species assumed): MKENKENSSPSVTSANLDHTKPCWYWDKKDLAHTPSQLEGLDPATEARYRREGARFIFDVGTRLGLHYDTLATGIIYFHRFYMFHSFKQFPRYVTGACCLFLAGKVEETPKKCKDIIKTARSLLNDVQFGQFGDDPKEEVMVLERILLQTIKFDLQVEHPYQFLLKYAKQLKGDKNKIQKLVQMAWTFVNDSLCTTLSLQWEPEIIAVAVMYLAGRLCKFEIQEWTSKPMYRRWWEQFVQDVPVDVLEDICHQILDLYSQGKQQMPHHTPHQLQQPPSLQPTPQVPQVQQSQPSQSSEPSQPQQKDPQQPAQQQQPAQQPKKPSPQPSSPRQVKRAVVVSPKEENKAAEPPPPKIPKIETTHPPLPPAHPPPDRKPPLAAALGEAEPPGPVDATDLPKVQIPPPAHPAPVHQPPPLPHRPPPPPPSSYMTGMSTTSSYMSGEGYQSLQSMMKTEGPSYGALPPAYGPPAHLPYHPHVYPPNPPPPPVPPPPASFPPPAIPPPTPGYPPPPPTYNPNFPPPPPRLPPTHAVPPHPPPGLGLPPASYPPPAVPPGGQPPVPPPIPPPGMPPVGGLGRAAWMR
T6 sequence (Q9NYV4 whole entry, species assumed): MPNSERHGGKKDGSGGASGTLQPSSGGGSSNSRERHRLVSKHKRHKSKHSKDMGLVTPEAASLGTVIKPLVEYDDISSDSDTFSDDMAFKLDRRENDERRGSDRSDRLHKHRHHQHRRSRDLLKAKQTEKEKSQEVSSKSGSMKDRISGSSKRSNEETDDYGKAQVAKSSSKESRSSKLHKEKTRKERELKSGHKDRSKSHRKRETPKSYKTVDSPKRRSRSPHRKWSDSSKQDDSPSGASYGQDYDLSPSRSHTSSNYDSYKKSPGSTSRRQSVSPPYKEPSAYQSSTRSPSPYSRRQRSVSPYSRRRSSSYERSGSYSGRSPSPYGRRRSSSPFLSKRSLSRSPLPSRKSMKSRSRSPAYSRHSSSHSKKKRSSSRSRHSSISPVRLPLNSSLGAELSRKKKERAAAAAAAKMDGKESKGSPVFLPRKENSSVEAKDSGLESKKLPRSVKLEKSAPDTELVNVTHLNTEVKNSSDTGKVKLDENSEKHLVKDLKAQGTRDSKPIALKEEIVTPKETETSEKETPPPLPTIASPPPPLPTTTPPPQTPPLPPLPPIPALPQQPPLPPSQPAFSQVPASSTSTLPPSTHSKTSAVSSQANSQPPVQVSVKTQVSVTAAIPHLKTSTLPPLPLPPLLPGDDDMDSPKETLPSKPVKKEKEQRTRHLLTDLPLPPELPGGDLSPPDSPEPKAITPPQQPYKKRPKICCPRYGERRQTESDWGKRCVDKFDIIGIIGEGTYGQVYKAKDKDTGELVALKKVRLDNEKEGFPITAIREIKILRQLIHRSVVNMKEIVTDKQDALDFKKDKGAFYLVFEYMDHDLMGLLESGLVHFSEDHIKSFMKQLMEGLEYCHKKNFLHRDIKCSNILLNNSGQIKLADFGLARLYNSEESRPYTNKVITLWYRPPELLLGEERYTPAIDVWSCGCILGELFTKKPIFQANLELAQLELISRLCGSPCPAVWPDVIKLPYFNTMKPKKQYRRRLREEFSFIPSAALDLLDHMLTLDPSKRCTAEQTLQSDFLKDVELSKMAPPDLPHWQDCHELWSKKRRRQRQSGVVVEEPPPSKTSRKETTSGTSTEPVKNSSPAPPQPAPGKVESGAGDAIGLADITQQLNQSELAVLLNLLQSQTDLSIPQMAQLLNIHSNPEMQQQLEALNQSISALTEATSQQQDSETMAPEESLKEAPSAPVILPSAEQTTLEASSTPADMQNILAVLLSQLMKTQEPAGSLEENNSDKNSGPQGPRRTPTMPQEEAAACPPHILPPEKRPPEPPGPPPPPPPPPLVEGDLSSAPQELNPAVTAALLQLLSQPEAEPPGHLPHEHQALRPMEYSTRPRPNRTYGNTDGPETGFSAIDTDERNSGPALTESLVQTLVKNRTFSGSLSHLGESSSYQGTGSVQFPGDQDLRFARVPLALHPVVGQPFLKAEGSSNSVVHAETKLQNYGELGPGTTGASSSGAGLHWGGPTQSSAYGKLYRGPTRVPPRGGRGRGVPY
T6 sequence (Q16531 whole entry, species assumed): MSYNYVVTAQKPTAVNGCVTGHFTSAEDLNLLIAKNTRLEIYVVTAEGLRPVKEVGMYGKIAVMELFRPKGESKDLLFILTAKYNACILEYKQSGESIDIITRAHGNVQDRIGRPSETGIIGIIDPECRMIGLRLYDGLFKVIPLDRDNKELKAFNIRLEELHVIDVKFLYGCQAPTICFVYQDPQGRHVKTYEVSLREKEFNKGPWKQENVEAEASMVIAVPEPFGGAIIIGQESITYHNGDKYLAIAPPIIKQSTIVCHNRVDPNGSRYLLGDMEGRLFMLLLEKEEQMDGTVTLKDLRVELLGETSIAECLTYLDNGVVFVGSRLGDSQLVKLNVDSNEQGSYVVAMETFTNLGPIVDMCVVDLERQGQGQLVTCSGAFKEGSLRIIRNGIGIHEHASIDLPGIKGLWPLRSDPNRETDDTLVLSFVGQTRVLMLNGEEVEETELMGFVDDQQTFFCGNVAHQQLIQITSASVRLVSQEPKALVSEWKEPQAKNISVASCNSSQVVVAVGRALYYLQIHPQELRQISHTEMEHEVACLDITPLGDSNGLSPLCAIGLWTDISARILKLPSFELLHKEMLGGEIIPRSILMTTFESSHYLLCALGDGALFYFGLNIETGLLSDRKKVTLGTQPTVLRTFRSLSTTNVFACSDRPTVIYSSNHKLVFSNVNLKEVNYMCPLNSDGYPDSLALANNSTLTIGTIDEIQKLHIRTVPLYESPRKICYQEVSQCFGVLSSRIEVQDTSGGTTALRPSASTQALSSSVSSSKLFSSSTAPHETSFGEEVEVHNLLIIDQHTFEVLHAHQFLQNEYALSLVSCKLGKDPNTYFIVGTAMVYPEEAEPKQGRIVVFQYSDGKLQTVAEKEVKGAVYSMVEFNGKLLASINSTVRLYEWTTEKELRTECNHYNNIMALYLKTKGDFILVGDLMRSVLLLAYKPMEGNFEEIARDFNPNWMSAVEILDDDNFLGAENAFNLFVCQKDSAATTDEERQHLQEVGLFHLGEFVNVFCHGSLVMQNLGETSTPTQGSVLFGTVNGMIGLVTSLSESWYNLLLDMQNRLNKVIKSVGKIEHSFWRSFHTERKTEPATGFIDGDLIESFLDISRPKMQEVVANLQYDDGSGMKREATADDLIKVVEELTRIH
T2 sequence (P15170 whole entry): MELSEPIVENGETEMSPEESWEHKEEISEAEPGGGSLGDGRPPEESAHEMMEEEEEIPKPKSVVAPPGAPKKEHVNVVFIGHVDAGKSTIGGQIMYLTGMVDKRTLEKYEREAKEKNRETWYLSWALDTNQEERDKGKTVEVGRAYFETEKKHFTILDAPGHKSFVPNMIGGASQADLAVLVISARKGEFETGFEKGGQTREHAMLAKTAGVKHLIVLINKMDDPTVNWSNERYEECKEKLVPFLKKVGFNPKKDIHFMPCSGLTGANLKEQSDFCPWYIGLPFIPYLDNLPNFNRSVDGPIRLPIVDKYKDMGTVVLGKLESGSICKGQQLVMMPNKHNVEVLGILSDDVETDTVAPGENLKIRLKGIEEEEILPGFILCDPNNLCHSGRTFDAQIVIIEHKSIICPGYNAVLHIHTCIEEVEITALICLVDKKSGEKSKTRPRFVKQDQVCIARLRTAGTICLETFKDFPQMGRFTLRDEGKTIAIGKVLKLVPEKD
T2 sequence (Q96SW2 whole entry): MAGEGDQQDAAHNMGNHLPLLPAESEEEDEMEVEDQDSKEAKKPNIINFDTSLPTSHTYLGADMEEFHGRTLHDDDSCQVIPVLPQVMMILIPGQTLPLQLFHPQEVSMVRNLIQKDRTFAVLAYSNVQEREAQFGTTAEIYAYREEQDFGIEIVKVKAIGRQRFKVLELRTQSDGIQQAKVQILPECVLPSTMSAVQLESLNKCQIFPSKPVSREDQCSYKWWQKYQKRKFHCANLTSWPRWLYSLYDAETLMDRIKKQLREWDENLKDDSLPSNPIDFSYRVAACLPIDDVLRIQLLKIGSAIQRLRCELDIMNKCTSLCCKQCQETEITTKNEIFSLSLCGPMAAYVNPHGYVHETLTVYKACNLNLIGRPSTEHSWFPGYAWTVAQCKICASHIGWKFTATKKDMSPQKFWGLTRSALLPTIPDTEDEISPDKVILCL
T2 sequence (Q16531 whole entry partner): as the sequence (Q16531 whole entry, species assumed) above

`C=C(Cn1cc(CNc2cc(N3CCCC[C@H]3CCO)nc3c(CC)cnn23)ccc1=O)C(=O)N[C@@H]1CN(c2nc(Nc3cn(C)nc3OC)c3ncn(C)c3n2)C[C@H]1F` [Compound A1-8]: the “Concentration of Effector Protein Ligand” value is 0.889 µM on EGFR T790M L858R (Buffer + Protein (EGFR T790M L858R), Time 0 h); 5.18 µM at EGFR T790M L858R (Buffer + Protein (EGFR T790M L858R), Time 2 h); 6.91 µM at EGFR T790M L858R (Buffer + Protein (EGFR T790M L858R), Time 8 h); 9.11 µM at EGFR T790M L858R (Buffer + Protein (EGFR T790M L858R), Time 24 h); 0.894 µM at EGFR T790M L858R (Buffer, Time 0 h); 4.06 µM on EGFR T790M L858R (Buffer, Time 2 h). Also, the “Concentration of Effector Protein Ligand” value on EGFR T790M L858R (Buffer, Time 8 h) worked out at 7.24 µM; on EGFR T790M L858R (Buffer, Time 24 h), 8.26 µM.

As to `C=C(CN(C(=O)NCc1ccc2c(c1)CN(C1CCC(=O)NC1=O)C2=O)c1ccc(C)c(Cl)c1)C(=O)N[C@@H]1CN(c2nc(Nc3cn(C)nc3OC)c3ncn(C)c3n2)C[C@H]1F` (some centres unmarked) [Compound I-41], on GSPT1, the DC50 is more than 2500 nM. Also, the GI50 in the experiment with HeLa cells (ATCC CCL-2) is more than 10 µM; in experiment [3], 1500 to 10000 nM. The Kd in experiment [1] and in experiment [4] was more than 2500 nM throughout. In addition, the EC50 in experiment [2] was more than 10 µM.

In the case of `C=C(COC(=O)N1CCN(c2nc(NCc3nc4cc(C)ccc4[nH]3)n3ncc(Br)c3n2)CC1)C(=O)N[C@@H]1CN(c2nc(Nc3cn(C)nc3OC)c3ncn(C)c3n2)C[C@H]1F` [II-184], the GI50 in the experiment with HeLa cells (ATCC CCL-2) was less than 0.5 µM; in experiment [3] it was less than 500 nM. The equilibrium dissociation constant (Kd) in experiment [1] and in experiment [4] was 50 to 500 nM each time. Further, the EC50 in experiment [2] fell in the range of 0.25 to 5 µM. At CCNK, this compound registered a DC50 of less than 250 nM.
